The source made the active and inactive calls. The rule behind the calls is not given here.
What was measured:
A-375 [1] = assay: Antiproliferative activity against human A375 cells assessed as cell viability at 10 uM after 48 hrs by trypan blue exclusion assay; format: functional; settings: A-375, 48 h, read-out: Activity
A-375 [2] = assay: Antiproliferative activity against human A375 cells assessed as cell viability at 1 uM after 48 hrs by trypan blue exclusion assay; format: functional; settings: for viability at 1 µM: A-375, 48 h, read-out: Activity
A-375 [3] = assay: Antiproliferative activity against human A375 cells assessed as cell viability at 5 uM after 48 hrs by trypan blue exclusion assay; format: functional; settings: A-375, 48 h, read-out: Activity
A-375 [4] = assay: Antiproliferative activity against human A375 cells after 48 hrs by trypan blue exclusion assay; format: functional, cell-based; settings: A-375, 48 h
K-562R = assay: Growth inhibition of human K562R cells assessed as cell viability at 10 uM after 48 hrs by trypan blue exclusion assay; format: functional; settings: read-out: Activity
MIA PaCa-2 = assay: Growth inhibition of gemcitabine-resistant human MIAPaCa2 cells assessed as cell viability at 10 uM after 48 hrs by trypan blue exclusion assay relative to control; format: functional; settings: MIA PaCa-2, 48 h, read-out: Activity
A-375 [5] = assay: Induction of autophagy in human A375 cells assessed as increase in conversion of LC3-I to LC3-II at 1 to 5 uM after 24 hrs by Western blot analysis; format: functional, cell-based
A-375 [6] = assay: Induction of autophagy in human A375 cells assessed as increase in conversion of LC3-I to LC3-II at 1 to 2.5 uM after 48 hrs by Western blot analysis; format: functional, cell-based
[7] = Growth inhibition of human A375 R5C3 cells assessed as cell viability at 10 uM after 48 hrs by trypan blue exclusion assay; format: functional; settings: A-375, 48 h, read-out: Activity
[8] = molecular target: T1, Eukaryotic translation initiation factor 2-alpha kinase 3 (Homo sapiens) (UniProt Q9NZJ5); assay: Activation of PERK in human A375 cells at 1 to 2.5 uM after 48 hrs by Western blot analysis; format: cell-based
T1 sequence (whole entry): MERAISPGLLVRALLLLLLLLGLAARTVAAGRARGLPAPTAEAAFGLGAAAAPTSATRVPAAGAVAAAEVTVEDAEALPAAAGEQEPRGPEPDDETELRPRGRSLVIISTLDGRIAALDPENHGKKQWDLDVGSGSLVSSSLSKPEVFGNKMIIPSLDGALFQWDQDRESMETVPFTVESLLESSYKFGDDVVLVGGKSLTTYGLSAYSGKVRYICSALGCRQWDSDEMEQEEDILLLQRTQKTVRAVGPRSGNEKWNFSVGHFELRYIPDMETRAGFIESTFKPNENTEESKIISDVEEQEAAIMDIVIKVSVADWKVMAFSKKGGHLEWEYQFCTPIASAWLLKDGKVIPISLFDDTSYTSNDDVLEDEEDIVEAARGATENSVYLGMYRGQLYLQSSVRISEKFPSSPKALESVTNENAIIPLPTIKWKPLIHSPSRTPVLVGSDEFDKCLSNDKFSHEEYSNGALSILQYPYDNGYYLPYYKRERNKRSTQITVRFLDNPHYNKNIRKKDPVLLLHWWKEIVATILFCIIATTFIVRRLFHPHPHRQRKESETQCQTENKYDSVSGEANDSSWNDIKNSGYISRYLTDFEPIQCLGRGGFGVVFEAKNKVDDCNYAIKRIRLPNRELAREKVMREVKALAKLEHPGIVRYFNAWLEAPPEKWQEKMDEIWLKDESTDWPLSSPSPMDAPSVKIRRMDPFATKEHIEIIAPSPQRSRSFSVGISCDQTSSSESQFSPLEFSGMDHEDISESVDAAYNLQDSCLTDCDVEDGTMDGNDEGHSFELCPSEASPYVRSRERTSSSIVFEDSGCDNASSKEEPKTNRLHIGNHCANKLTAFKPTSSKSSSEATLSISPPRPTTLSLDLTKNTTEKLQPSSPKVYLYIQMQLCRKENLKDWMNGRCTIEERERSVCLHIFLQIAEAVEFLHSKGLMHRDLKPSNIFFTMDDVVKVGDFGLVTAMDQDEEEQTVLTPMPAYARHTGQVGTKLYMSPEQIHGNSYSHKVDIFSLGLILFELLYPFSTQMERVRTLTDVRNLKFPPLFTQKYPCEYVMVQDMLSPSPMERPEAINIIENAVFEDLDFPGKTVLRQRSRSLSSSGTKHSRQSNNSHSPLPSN

[9] = molecular target: T1, Eukaryotic translation initiation factor 2-alpha kinase 3 (Homo sapiens); assay: Activation of PERK in human A375 cells at 2.5 to 10 uM after 12 hrs by Western blot analysis; format: cell-based
[10] = Growth inhibition of human A375 RIV cells assessed as cell viability at 10 uM after 48 hrs by trypan blue exclusion assay; format: functional; settings: A-375, 48 h, read-out: Activity
A-375 [11] = assay: Induction of apoptosis in human A375 cells assessed as cleavage of PARP protein at 2.5 to 10 uM after 12 hrs by Western blot analysis; format: functional, cell-based
[12] = molecular target: T1, Eukaryotic translation initiation factor 2-alpha kinase 3 (Homo sapiens); assay: Activation of PERK in human A375 cells assessed as increase in CHOP expression at 1 to 2.5 uM after 48 hrs by Western blot analysis; format: cell-based
K562 = assay: Growth inhibition of human K562 cells assessed as cell viability at 10 uM after 48 hrs by trypan blue exclusion assay; format: functional; settings: K562, 48 h, read-out: Activity
A-375 [13] = assay: Induction of autophagy in human A375 cells assessed as increase in conversion of LC3-I to LC3-II at 2.5 to 10 uM after 12 hrs by Western blot analysis; format: functional, cell-based
[14] = molecular target: T1, Eukaryotic translation initiation factor 2-alpha kinase 3 (Homo sapiens); assay: Activation of PERK in human A375 cells assessed as increase in CHOP expression at 2.5 to 10 uM after 12 hrs by Western blot analysis; format: cell-based
BXPC-3 = assay: Growth inhibition of human BxPC3 cells assessed as cell viability at 10 uM after 48 hrs by trypan blue exclusion assay; format: functional; settings: BXPC-3, 48 h, read-out: Activity

Compound	viability at 10 µM (A-375 [1]) [%]	viability at 5 µM (A-375 [3]) [%]	viability at 1 µM (A-375 [2]) [%]	further results
CC(=O)Nc1nc(-c2cccc(NS(=O)(=O)c3ccc(Br)cc3)c2)cs1	25.6	19.7		Activity (A-375 [2]): inactive
CCCCC#Cc1ccc(S(=O)(=O)Nc2cccc(-c3csc(NC(C)=O)n3)c2)cc1	< 1	9.3	73.2	
C#Cc1cccc(S(=O)(=O)Nc2cccc(-c3csc(NC(C)=O)n3)c2)c1	18.6	29	74.3	
CC(=O)Nc1nc(-c2cccc(NS(=O)(=O)c3ccc(C#C[Si](C)(C)C)cc3)c2)cs1	< 1	4.2	94.3	
CCCCCCC#Cc1ccc(S(=O)(=O)Nc2cccc(-c3csc(Nc4ccccc4)n3)c2)cc1	5.8	59.2	87.1	
CCCCCCC#Cc1ccc(S(=O)(=O)Nc2cccc(-c3csc(N)n3)c2)cc1	3.5	< 1	97.6	
C#Cc1ccc(S(=O)(=O)Nc2cccc(-c3csc(NC(C)=O)n3)c2)cc1	1.2	38.3	59.2	
CC(=O)Nc1nc(-c2cccc(NS(=O)(=O)c3cccc(C#CCO)c3)c2)cs1	45.3	66.2	85.4	EC50 (A-375 [4]): 10 µM
CCCCCCCCc1ccc(S(=O)(=O)Nc2cccc(-c3csc(NC(C)=O)n3)c2)cc1	< 1	< 1	34.8	viability at 10 µM (K-562R): 10.1%; viability at 10 µM (MIA PaCa-2): 11.4%; Activity (A-375 [5]): Active; Activity (A-375 [6]): Active; viability at 10 µM [7]: 1.4%; Activity [8]: Active; Activity [9]: Active; viability at 10 µM [10]: 2.6%; Activity (A-375 [11]): Active; Activity [12]: Active; viability at 10 µM (K562): 3.8%; Activity (A-375 [13]): Active; Activity [14]: Active; viability at 10 µM (BXPC-3): 4.9%
CC(=O)Nc1nc(-c2cccc(NS(=O)(=O)c3ccc(C#CC4CCCCC4)cc3)c2)cs1	1.2	1.2	52.3	
CC(=O)Nc1nc(-c2cccc(NS(=O)(=O)c3ccc(C#CCO)cc3)c2)cs1	48.8	99.3	81.3	EC50 (A-375 [4]): 10 µM
CCCCCCCCC#Cc1ccc(S(=O)(=O)Nc2cccc(-c3csc(NC(C)=O)n3)c2)cc1	< 1	8.9	39.6	
CC(=O)Nc1nc(-c2cccc(NS(=O)(=O)c3cccc(C#C[Si](C)(C)C)c3)c2)cs1	5.8	< 1	61.6	
CCCCCCc1ccc(S(=O)(=O)Nc2cccc(-c3csc(NC(C)=O)n3)c2)cc1		< 1	49.9	viability at 10 µM (K-562R): 41.6%; viability at 10 µM (MIA PaCa-2): 1.3%; viability at 10 µM [7]: 1.4%; viability at 10 µM [10]: 3.4%; viability at 10 µM (K562): 23.2%; viability at 10 µM (BXPC-3): 5.9%
CCCCCCC#Cc1ccc(S(=O)(=O)Nc2cccc(-c3csc(NC)n3)c2)cc1	1.2	8.1	36.6	
CCCCCCC#Cc1cccc(S(=O)(=O)Nc2cccc(-c3csc(NC(C)=O)n3)c2)c1	< 1	1.2	56.9	
CCCCCC/C=C\c1ccc(S(=O)(=O)Nc2cccc(-c3csc(NC(C)=O)n3)c2)cc1		2.3	48.8	viability at 10 µM (K-562R): 41.1%; viability at 10 µM (MIA PaCa-2): 11.4%; viability at 10 µM [7]: < 1%; viability at 10 µM [10]: < 1%; viability at 10 µM (K562): 8.9%; viability at 10 µM (BXPC-3): 2%
CC(=O)Nc1nc(-c2cccc(NS(=O)(=O)c3ccc(C#CCCc4ccccc4)cc3)c2)cs1	< 1	4.2	11.5	
CCCCCCC#Cc1ccc(S(=O)(=O)Nc2cccc(-c3csc(NC(C)=O)n3)c2)cc1	5.8	12.8	40.7	
CC(=O)Nc1nc(-c2cccc(NS(=O)(=O)c3cccc(Br)c3)c2)cs1	36	67.4		Activity (A-375 [2]): inactive
